Measured values from US12209072B2, “Cyclopentyl acids as LPA antagonists” (BRISTOL-MYERS SQUIBB COMPANY, priority 2018, dated 2025).

Columns and labels:
nerve-injured mice = settings: pretreatment; cited from earlier work
UUO mice = settings: compared with LPA1 (-/-) mice; cited from earlier work
[1] = tested on: highly peritoneal metastatic pancreatic cancer cell line; settings: cited from earlier work
[2] = tested on: human foetal lung fibroblasts; settings: cited from earlier work
[3] = tested on: pancreatic cancer cell lines; settings: cited from earlier work
[4] = tested on: mouse epithelial renal cell line, MCT; settings: co-treatment with LPA, MCT cells; cited from earlier work
human LPA1 = target: T1, human LPA1 (Homo sapiens, UniProt Q92633); test: LPA1 functional antagonist assay (LPA-induced calcium flux); type: cell-based; settings: CHO cells overexpressing human LPA1; inhibition of calcium flux induced by 10 nM LPA; read-out: hLPA1 IC50
T1 construct: expressed in transfected cells; host or cells: Chinese hamster ovary (CHO) cells
T1 sequence (Q92633 whole entry): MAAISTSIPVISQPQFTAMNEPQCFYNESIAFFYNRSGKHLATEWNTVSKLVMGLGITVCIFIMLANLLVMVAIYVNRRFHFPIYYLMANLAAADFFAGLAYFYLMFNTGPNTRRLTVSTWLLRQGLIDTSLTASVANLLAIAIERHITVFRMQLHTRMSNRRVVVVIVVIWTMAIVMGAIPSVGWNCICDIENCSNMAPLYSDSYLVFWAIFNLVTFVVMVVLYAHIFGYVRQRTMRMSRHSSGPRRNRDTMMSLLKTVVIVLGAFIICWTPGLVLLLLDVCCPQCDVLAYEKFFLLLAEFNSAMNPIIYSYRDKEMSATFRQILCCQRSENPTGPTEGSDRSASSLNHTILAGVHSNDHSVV
Outline: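 CHO cells overexpressing human LPA1, loaded with calcium dye, given compound (0.08 nM–5 μM final, 0.5% DMSO) for 20 min at room temperature in HBSS/HEPES with 0.1% fatty-acid-free BSA, then stimulated with 10 nM LPA. IC50 defined as 50% inhibition of LPA-induced calcium flux, from 4-parameter logistic fit.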

Structure (SMILES) | IC50 (human LPA1) | further results
C[C@@H](N)[C@H]1CC[C@H](C(=O)Nc2ccncc2)CC1 [Example Y-27632] |  | allodynia and hyperalgesia (nerve-injured mice): completely abolished
Cc1noc(-c2ccc(CSCCC(=O)O)cc2)c1NC(=O)OC(C)c1ccccc1Cl (stereo not drawn) [Ki16425] |  | development of renal fibrosis in UUO mice (UUO mice): closely resembled the profile of LPA1 (−/−) mice; LPA-induced and ascites-induced invasion activity [1]: blocked; chemotaxis of human foetal lung fibroblasts induced by BAL obtained from IPF patients [2]: blocked; in vitro migration in response to LPA and peritoneal fluid (ascites) from pancreatic cancer patients [3]: effectively blocked; LPA-induced increase in expression of the profibrotic cytokine CTGF [4]: almost completely suppressed
Cc1noc(-c2ccc(O[C@H]3CC[C@@H](C(=O)O)C3)cc2)c1COC(=O)N(C)C1CCCC1 (racemic) [Example 71, (±)-cis-3-{4-[4-({[cyclopentyl(methyl)carbamoyl]oxy}methyl)-3-methyl-1,2-oxazol-5-yl]phenoxy}cyclopentane-1-carboxylic acid] | 205 nM | 
Cc1nc(-c2nnn(C)c2COC(=O)N(C)CCCF)ccc1O[C@H]1CC[C@H](CC(=O)O)C1 (racemic) [Example 65, (±)-trans-2-[3-({6-[5-({[(3-fluoro-propyl)(methyl)carbamoyl]oxy}methyl)-1-methyl-1H-1,2,3-triazol-4-yl]-2-methylpyridin-3-yl}oxy)cyclo-pentyl]acetic acid] | 944 nM | 
Cc1nc(-c2cnn(C)c2CNC(=O)OCc2ccccc2)cnc1O[C@H]1CC[C@H](C(=O)O)C1 (single isomer, unassigned) [Example 19, Trans-3-((5-(5-((((benzyloxy)carbonyl)amino)methyl)-1-methyl-1H-pyrazol-4-yl)-3-methylpyrazin-2-yl)oxy)cyclopentanecarboxylic Acid] | 202 nM | 
Cc1nc(-c2cnn(C)c2CNC(=O)OCc2ccccc2)cnc1O[C@H]1CC[C@H](C(=O)O)C1 (racemic) [Example 18, (±)-Trans-3-((5-(5-((((benzyloxy)carbonyl)amino)methyl)-1-methyl-1H-pyrazol-4-yl)-3-methylpyrazin-2-yl)oxy)cyclopentanecarboxylic Acid] | 369 nM | 
Cc1nc(-c2nnn(C)c2COC(=O)N(C)CC(C)C)ccc1O[C@@H]1CC[C@@H](C(=O)O)C1 (racemic) [Example 24, (±)-trans-3-((6-(5-(((isobutyl(methyl)carbamoyl)oxy)methyl)-1-methyl-1H-1,2,3-triazol-4-yl)-2-methylpyridin-3-yl)oxy)cyclopentane carboxylic acid] | 1160 nM | 
CCc1nc(-c2nnn(C)c2COC(=O)N(C)CC2CCC2)ccc1O[C@@H]1CC[C@@H](CC(=O)O)C1 (racemic) [Example 87, (±)-2-((trans)-3-((6-(5-((((cyclo-butylmethyl)(methyl)carba-moyl)oxy)methyl)-1-methyl-1H-1,2,3-triazol-4-yl)-2-ethyl-pyridin-3-yl)oxy)cyclopentyl)acetic acid] | 46 nM | 
